In patent EP1800684A1, “Novel alkyl phospholipid derivatives and uses thereof” (Zentaris GmbH, priority 2005, dated 2007):
Converted amounts (≈) assume the structure as drawn. Where two headings read alike, the source gives them in different places.

Assays:
Assay type in all cases: cell-based
[1] = tested on: Candida albicans (strain TS3); assay: Anti-fungal susceptibility test (microdilution), fungus C; conditions: no visible growth after 48 hours at 35° C
Procedure: (§1) The antifungal activities of the test compounds (compounds of the invention and known prior art compounds) were measured according to standard microdilution methods (Cryptococcus/Aspergillus: Ghannoum et al., Journal of Clinical Microbiology 1992, 30 (11): 2881-2886; Candida: Reference method for broth dilution susceptibility testing of yeast: proposed standard, NCCLS document M27-P, National Committee for Clinical Laboratory Standards 1992, Villanova, Pa).
(§2) A serial dilution series starting from 64 µg/mL test compound per well down to 0.125 µg/mL test compound per well was applied for each test compound on each fungus. The MIC of each compound was defined as the concentration which produces no visible growth after 48 hours (Candida) and 72 hours (Cryptococcus, Aspergillus) of culture at 35° C.
(§3) The following fungi were assessed: • A) Candida albicans (ATCC 10231) • B) Candida albicans (ATCC 90028) • C) Candida albicans (strain TS3, Shrikantha et al., Journal of Bacteriology 2000, 182(6):1580-1591) • D) Candida parapsilosis (ATCC 22019) • E) Cryptocoocus neoformans (ATCC 90112) • F) Cryptocoocus neoformans (strain H99; Ganendren et al., Antimicrobial Agents and Chemotherapy, 2004, 48(5):1561-1569) • G) Cryptocoocus gattii (ATCC 32608) • H) Aspergillus fumigatus (ATCC 204305) • I) Aspergillus fumigatus (strain 322-384)

[2] = tested on: Plasmodium falciparum (strain 3D7); assay: In vitro drug susceptibility assay, protozoon D (3[H]-hypoxanthine method)
Procedure: (§4) Plasmodium falciparum strain K1 and strain 3D7 parasites were cultured according to Trager W and Jensen JB (Science 1976, 193: 673-675). In vitro drug susceptibility assays with the test compounds were carried out according to Korsinczky M et al. (Antimicrobial agents and chemotherapy 2000, 44(8): 2100-2108) and Fivelman QL et al. (Antimicrobial agents and chemotherapy 2004, 48(11): 4097-4102) using a ^3[H]-hypoxanthine radioisotope method. ED50 values were calculated with Msxlfit (IDBS).
(§5) The following protozoa were assessed: • A) Trypanosoma cruzi (Tulahuan-LACZ amstigotes in PEM, Lorente SO et al., Antimicrobial agents and chemotherapy 2004, 48(8): 2937-2950; Buckner et al., Infection and Immunity 1999, 67(1): 403-409; Buckner et al., Antimicrobial Agents and Chemotherapy 1996, 40(11): 2592-2597) • B) Trypanosoma brucei rhodesiense (strain STIB900, Lorente SO et al., Antimicrobial agents and chemotherapy 2004, 48(8): 2937-2950; Habtemariam S, BMC Pharmacology 2003, 3:6) • C) Plasmodium falciparum (strain K1, Korsinczky M et al., Antimicrobial agents and chemotherapy 2000, 44(8): 2100-2108; Thaitong S and Beale GH, Trans. R. Soc. Trop. Med. Hyg. 1981, 75: 271-273; Trager W and Jensen JB, Science 1976, 193: 673-675) • D) Plasmodium falciparum (strain 3D7, Mu et al., PLoS Biology 2005, 3(10): e335)

[3] = tested on: Aspergillus fumigatus (ATCC 204305); assay: Anti-fungal susceptibility test (microdilution), fungus H
Procedure: as §1, §2, §3

[4] = tested on: Candida albicans (ATCC 90028); assay: Anti-fungal susceptibility test (microdilution), fungus B
Procedure: as §1, §2, §3

[5] = tested on: Cryptocoocus gattii (ATCC 32608); assay: Anti-fungal susceptibility test (microdilution), fungus G; conditions: fungus G; no visible growth after 72 hours at 35° C; read-out: MIC
Procedure: as §1, §2, §3

[6] = tested on: Cryptocoocus neoformans (strain H99); assay: Anti-fungal susceptibility test (microdilution), fungus F; conditions: fungus F; no visible growth after 72 hours at 35° C; read-out: MIC
Procedure: as §1, §2, §3

[7] = tested on: Cryptocoocus neoformans (ATCC 90112); assay: Anti-fungal susceptibility test (microdilution), fungus E
Procedure: as §1, §2, §3

[8] = tested on: Trypanosoma cruzi (Tulahuan-LACZ amstigotes in PEM); assay: In vitro drug activity assay, protozoon A (amastigotes in murine peritoneal macrophages, CPRG readout); conditions: infected macrophages exposed for 3 days
Procedure: Murine (CD1) peritoneal macrophages were harvested 24 hours after starch induction and dispensed into 96-well plates at a concentration of 4 x 10^5 mL. After 24 hours, the cells were infected with Trypanosoma cruzi Tulahuan LAC-Z amastigotes (grown and cultured according to Buckner et al., Infection and Immunity 1999, 67(1): 403-409). 24 hours later, the infected cells were exposed to the test compounds (compounds of the invention as well as known prior art compounds) for 3 days and 50 µL of 500 µM CPRG-1% Nonidet P-40 was added to each well. The plates were read after 2 to 5 hours at 570 nm (Buckner et al., Antimicrobial Agents and Chemotherapy 1996, 40(11): 2592-2597). ED50 values were calculated with Msxlfit (IDBS).
as §5

[9] = tested on: Candida albicans (ATCC 10231); assay: Anti-fungal susceptibility test (microdilution), fungus A
Procedure: as §1, §2, §3

[10] = tested on: Aspergillus fumigatus (strain 322-384); assay: Anti-fungal susceptibility test (microdilution), fungus I; conditions: no visible growth after 72 hours at 35° C
Procedure: as §1, §2, §3

[11] = tested on: Candida parapsilosis (ATCC 22019); assay: Anti-fungal susceptibility test (microdilution), fungus D
Procedure: as §1, §2, §3

[12] = tested on: Trypanosoma brucei rhodesiense (strain STIB900); assay: In vitro drug activity assay, protozoon B (bloodstream form trypomastigotes, Alamar Blue); conditions: incubated for 72 hours
Procedure: Trypanosoma brucei rhodesiense STIB900 bloodstream form trypomastigotes were maintained in HMI-18 medium (Hirumi H, Hirumi K, J Parasitol. 1989, 75(6):985-989) with 15% heat-inactivated fetal calf serum at 37°C, 5% CO2, humidified atmosphere. Trypomastigotes were washed and resuspended in fresh medium at a concentration of 2 x 10^5 mL. Test compounds were given to the trypomastigotes and plates were incubated for 72 hours at 37°C, 5% CO2, humidified atmosphere. At 72 hours the plates were assessed microscopically before Alamar Blue was added (Raz et al., Acta Trop. 1997, 68: 139-147). Plates were read after 5 to 6 hours at EX/EM 530/585 nm with a filter cutoff at 550 nm. ED50 values were calculated with Msxlfit (IDBS).
as §5

[13] = tested on: Plasmodium falciparum (strain K1); assay: In vitro drug susceptibility assay, protozoon C (3[H]-hypoxanthine method)
Procedure: as §4, §5

[14] = tested on: KB/HeLa (ATCC CCL17, human cervix carcinoma); assay: XTT cytotoxicity assay, KB/HeLa cells; conditions: 48 h, 2 days of continuous drug exposure
Procedure: (§6) Human tumor cell lines KB/HeLa (ATCC CCL17, human cervix carcinoma), PC3 (ATCC CRL1435, human prostate carcinoma) and RKOp21 (human colon adenocarcinoma) cells were used in an automated XTT screening assay for the assessment of cytotoxicity.
(§7) The XTT assay quantifies cellular metabolic activity which correlates with cell viability and cell number. Test compounds (selected compounds of the invention and known substances as controls) are dissolved in culture medium at 600µM and added to the tumor cells in 10 different concentrations in a semi-logarithmic fashion starting from 100 µM as highest concentration.
(§8) 48h later cellular metabolic activity of cells treated with test compounds is quantified by measurement of the absorbance at 490nm (conversion of XTT dye) in comparison to untreated control cells (100% viability).
(§9) KB/HeLa and PC3 cells were cultivated in RPMI medium supplemented with 10% heat inactivated fetal calf serum, 2 mM glutamine, 100 U/ml penicillin, and 100 µg/ml streptomycin. RKOp21 cells were grown in DMEM supplemented with 10% heat inactivated fetal calf serum, 2 mM glutamine, 100 U/ml penicillin, and 100 µg/ml streptomycin. All cells were cultured at 37°C in 5% CO2 humidified air.
(§10) On the first day of the experiment cells were harvested from exponential phase cultures by trypsination, counted and plated into 96 well flat-bottom micro titer plates depending on the cell line as listed below:
(§11) After a 24h recovery to allow the cells to resume exponential growth, the test compounds were diluted immediately prior to use and transferred in 25µl volume to the wells.
(§12) Following 2 days of continuous drug exposure 50µl of freshly prepared XTT-PMS solution (2% […] PMS in PBS + 98% 1 mg/ml XTT in RPMI 1640 without phenol red) was added to the wells. To measure the proportion of living cells, the cells were incubated for 3 h with XTT-PMS reagent at 37°C, 5% CO2, humidified atmosphere allowing to form the formazan salt. The amount of soluble formazan salt produced by cellular reduction of XTT is quantified by measuring the absorbance at 490nm using the Biomek® 2000 ELISA plate reader.
(§13) %-inhibition (cytotoxicity) of each test compound was calculated in relation to untreated control cells. Inhibition curves were generated and IC50 values calculated by using GraphPad Prism.

[15] = tested on: PC3 (ATCC CRL1435, human prostate carcinoma); assay: XTT cytotoxicity assay, PC3 cells; conditions: PC-3, 48 h, 2 days of continuous drug exposure
Procedure: as §6, §7, §8, §9, §10, §11, §12, §13

[16] = tested on: RKOp21 (human colon adenocarcinoma) cells; assay: XTT cytotoxicity assay, RKOp21 cells; conditions: 48 h, 2 days of continuous drug exposure
Procedure: as §6, §7, §8, §9, §10, §11, §12, §13

[17] = Candida albicans, read-out: MIC
[18] = Aspergillus fumigatus, ATCC204305, no visible growth after 72 hours at 35° C, read-out: MIC
[19] = Candida albicans, ATCC90028, no visible growth after 48 hours at 35° C, read-out: MIC
[20] = fungus E, no visible growth after 72 hours at 35° C, read-out: MIC
[21] = Candida albicans, ATCC10231, no visible growth after 48 hours at 35° C, read-out: MIC
[22] = Aspergillus fumigatus, read-out: MIC
[23] = ATCC22019, no visible growth after 48 hours at 35° C, read-out: MIC
[24] = no visible growth after 48 hours at 35° C

CCCCCCCCCCCCCCCCOP(=O)([O-])OC1CC[N+](C)(Cc2ccccc2)CC1 (stereo not drawn) [Compound 1, Phosphoric acid 1-benzyl-1-methyl-piperidin-4-yl ester hexadecyl ester]
MIC [1, 17]: 1.5 µg/mL (≈ 2.94 µM) | ED50 (µg/mL) [2]: 9,97 µg/mL | MIC [3, 18]: 2 µg/mL (≈ 3.92 µM) | MIC [4, 19]: 1 µg/mL (≈ 1.96 µM) | MIC [5]: 1 µg/mL (≈ 1.96 µM) | MIC [6]: 2 µg/mL (≈ 3.92 µM) | MIC [7, 20]: 1.5 µg/mL (≈ 2.94 µM) | ED50 (µg/mL) [8]: 1,71 µg/mL | MIC [9, 21]: 2 µg/mL (≈ 3.92 µM) | MIC [10, 22]: 2 µg/mL (≈ 3.92 µM) | MIC [11, 23]: 3 µg/mL (≈ 5.89 µM) | ED50 (µg/mL) [12]: 18,80 µg/mL | ED50 (µg/mL) [13]: 6,93 µg/mL

CCCCCCCCCCCCCCCCOP(=O)([O-])OC1CC[N+](C)(CCc2ccccc2)CC1 (stereo not drawn) [Compound 4, Phosphoric acid 1-methyl-1-phenethyl-piperidin-4-yl ester hexadecyl ester]
ED50 (µg/mL) [2]: 15,32 µg/mL | ED50 (µg/mL) [12]: 12,29 µg/mL | ED50 (µg/mL) [13]: 5,44 µg/mL

CCCCCCCCCCCCCCCCOCCCOP(=O)([O-])OCC[N+](C)(C)C [Compound 8, Phosphoric acid 3-hexadecyloxy-propyl ester 2-trimethylammonium-ethyl ester]
MIC [1, 17]: 1 µg/mL | MIC [3, 18]: 2 µg/mL | MIC [4, 19]: 0.75 µg/mL | MIC [5]: 0.75 µg/mL | MIC [6]: 1.5 µg/mL | MIC [7, 20]: 2 µg/mL | MIC [9, 21]: 0.75 µg/mL | MIC [10, 22]: 2 µg/mL | MIC [11, 23]: 0.75 µg/mL

CCCCCCCC/C=C\CCCCCCCCCCCCOP(=O)([O-])OC1CC[N+](C)(C)CC1 [Compound 17, Phosphoric acid 1,1-dimethyl-piperidin-4-yl ester (Z)-docos-13-enyl ester]
IC50 [14]: 16.6 µM | IC50 [15]: 18.3 µM | IC50 [16]: 32.5 µM

CCCCCCCC/C=C\CCCCCCCCOP(=O)(O)OCCN1CCCCC1 [Compound 19, Phosphoric acid (Z)-octadec-9-enyl ester 2-piperidin-1-yl-ethyl ester]
IC50 [14]: > 100 µM | IC50 [15]: > 100 µM | IC50 [16]: > 100 µM

CCCCCCCCCCOCCOCCOP(=O)([O-])OCC[N+]1(C)CCCCC1 [Compound 20, Phosphoric acid 2-(2-decyloxy-ethoxy)-ethyl ester 2-(1-methylpiperidin-1-yl)-ethyl ester]
IC50 [14]: > 100 µM | IC50 [15]: > 100 µM | IC50 [16]: > 100 µM

CCCCCCCCCCCCCCCCCCOP(=O)([O-])OCC[As+](C)(C)C [Compound 22]
MIC [1]: 1 µg/mL | MIC ([3]; no visible growth after 72 hours at 35° C): 4 µg/mL | MIC [4, 24]: 1 µg/mL | MIC [9, 24]: 0.5 µg/mL | MIC [10]: 2 µg/mL | MIC [11, 24]: 1 µg/mL

CCCCCCCC/C=C\CCCCCCCCCCCCOP(=O)([O-])OCC[N+](C)(C)C [ErPC, (13Z)-docosenylphosphocholine, reference compound]
MIC [1, 17]: > 64 µg/mL | MIC [3, 18]: > 64 µg/mL | MIC [4, 19]: > 64 µg/mL | MIC [5]: 1.5 µg/mL (≈ 3.06 µM) | MIC [6]: 3 µg/mL (≈ 6.13 µM) | MIC ([7]; 72 h): 4 µg/mL (≈ 8.17 µM) | MIC [9, 21]: > 64 µg/mL | MIC [10, 22]: > 64 µg/mL | MIC [11, 23]: > 64 µg/mL

O=C(Cn1ccnc1[N+](=O)[O-])NCc1ccccc1 [benznidazole, Benznidazole, reference compound]
ED50 (µg/mL) [8]: 0,22 µg/mL

CCCCCCCCCCCCCCCCOP(=O)([O-])OCC[N+](C)(C)C [miltefosine, reference compound]
IC50 [14]: 8.66 µM | ED50 (µg/mL) [8]: 0,63 µg/mL | IC50 [15]: 9.39 µM | IC50 [16]: 18 µM

CCCCCCCCCCCCCCCCCCOP(=O)([O-])OC1CC[N+](C)(C)CC1 [perifosine, octadecyl-1,1-dimethyl-piperidino-4-yl-phosphate, reference compound]
IC50 [14]: 2.37 µM | IC50 [15]: 3.22 µM | IC50 [16]: 3.31 µM
